Where a SMILES comes first, the peptide text is derived from it. Bridges are numbered along the chain shown (N, C = ends). [ ]: non-standard residue; d: D form. NMeA = CN[C@@H](C)C(=O)O; Nle = CCCC[C@H](N)C(=O)O

The test system of one assay is guinea pigs. The assay can be described thus: In vivo bronchodilator activity by tracheal instillation against histamine challenge. To be noted: anesthetized male guinea pigs, inhibition of histamine (i.v.)-induced rise in tracheal pressure. On the set-up: species or system guinea pig. The protocol: The in vivo bronchodilator activity of VIP and VIP analogs in guinea pigs was assessed by the tracheal instillation route of administration. This technique utilized male guinea pigs (Hartley strain, Charles River) weighing 400-600 g. Animals were anesthetized with urethane (2 g/kg) intraperitoneally and a polyethylene cannula was inserted into the jugular vein for intraveneous drug administration.
The animals were tracheotomized and dosing solutions of distilled water or test compound dissolved in distilled water were administered into the trachea, approximately three-quarters the distance to the carina with a pipette. The concentration of the dosing solution was adjusted to deliver a constant volume of […]. The animals were placed supine for one minute to aid drug delivery to the lung. One minute later, spontaneous breathing was arrested with succinylcholine chloride (1.2 mg/kg) administered intraveneously, and the animals were ventilated with a HARVARD Model 680 small animal respirator set at 40 breaths/min and 4.0 cm^3 stroke volume. The animals were challenged with a maximal constrictory dose of histamine ([…], i.v.) and tracheal pressure (cm of water) was recorded from a STATHAM pressure transducer (P 32 AA).
The change in tracheal pressure was averaged for at least 3 control and 3 drug-treated animals and percent inhibition was calculated. The relative potency of compounds administered by the instillation route was determined by administering various doses of test compound and calculating the median effective dose (ED50 value). The ED50 was determined from log dose-response curves generated by at least 3 doses that caused inhibitory effects between 10% and 90%. The correlation coefficients for the regression line of each compound was always greater than 0.95.
For determination of the time course of inhibition for various compounds, the time between administration of compound and challenge with histamine was varied. The time course of activity was calculated as the time when inhibition decreased to 40%.
The results summarized in Table II show the in vivo bronchodilator activity of the VIP analogs in comparison to native VIP.

Assay [1] concerns guinea pig tracheal smooth muscle. The assay can be described thus: Tracheal relaxant activity of VIP analogs on isolated guinea pig tracheal rings. To be noted: cumulative concentration response, relaxation as % of maximum response to VIP (10^-6 M=100%), three tissues pooled, linear regression. It is filed as cell-based. A digest of the protocol: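 Male guinea pig tracheal rings under 1.5 g resting tension in Krebs at 37° C, 95% O2/5% CO2, isometric tension. Cumulative concentration-response curves; relaxation as % of response to 10^-6 M VIP added at end; three tissues pooled, EC50 by linear regression.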

What is called EC50 is the midpoint of the concentration-response curve. A higher EC50 goes with a less potent agent. In the case of `CCCC[C@H](NC(=O)[C@H](CCC(N)=O)NC(=O)[C@H](CCCCN)NC(=O)[C@H](CCCNC(=N)N)NC(=O)[C@H](CC(C)C)NC(=O)[C@H](CCCCN)NC(=O)[C@@H](NC(=O)[C@H](Cc1ccc(O)cc1)NC(=O)[C@H](CC(N)=O)NC(=O)[C@H](CC(=O)O)NC(=O)[C@@H](NC(=O)[C@H](Cc1ccccc1)NC(=O)[C@@H](NC(=O)[C@H](C)NC(=O)[C@H](CC(=O)O)NC(=O)[C@H](C)NC(=O)[C@H](Cc1c[nH]cn1)NC(C)=O)C(C)C)[C@@H](C)O)[C@@H](C)O)C(=O)N[C@@H](C)C(=O)N[C@@H](C)C(=O)N[C@@H](CCCCN)C(=O)N[C@H]1CCCCNC(=O)C[C@@H](C(=O)N[C@H](C(=O)N[C@@H](CC(C)C)C(=O)N[C@H](C(N)=O)[C@@H](C)O)C(C)C)NC(=O)[C@H](CC(N)=O)NC(=O)[C@H](CC(C)C)NC(=O)[C@H](Cc2ccc(O)cc2)NC1=O` [SEQ ID NO:33, Ac-[Ala^2,Lys^12,Nle^17,Ala^19,Asp^25,Val^26,Thr^28]-VIP cyclo (Lys^21 →Asp^25)] (Ac-HADAVFTDNYTKLRKQ[Nle]AAKKYLNDVLT-NH2; lactam 21-25), in the assay with guinea pigs, the “Bronchodilator activity of VIP analogs in guinea pigs, ED50” value (from here on “Bronchodilator activity of VIP analogs”) came to 0.6 μg. The compound also returned an EC50 in assay [1] of 1.2 nM.
Taken in the same sequence, the figures for `CCCC[C@H](NC(=O)[C@H](CCC(N)=O)NC(=O)[C@H](CCCCN)NC(=O)[C@H](CCCNC(=N)N)NC(=O)[C@H](CC(C)C)NC(=O)[C@H](CCCCN)NC(=O)[C@@H](NC(=O)[C@H](Cc1ccc(O)cc1)NC(=O)[C@H](CC(N)=O)NC(=O)[C@H](CC(=O)O)NC(=O)[C@@H](NC(=O)[C@H](Cc1ccccc1)NC(=O)[C@@H](NC(=O)[C@H](C)NC(=O)[C@H](CC(=O)O)NC(=O)[C@H](CO)NC(=O)[C@H](C)N(C)C(C)=O)C(C)C)[C@@H](C)O)[C@@H](C)O)C(=O)N[C@@H](C)C(=O)N[C@@H](C)C(=O)N[C@@H](CCCCN)C(=O)N[C@H]1CCCCNC(=O)C[C@@H](C(=O)N[C@H](C(=O)N[C@@H](CC(C)C)C(=O)N[C@H](C(N)=O)[C@@H](C)O)C(C)C)NC(=O)[C@H](CC(N)=O)NC(=O)[C@H](CC(C)C)NC(=O)[C@H](Cc2ccc(O)cc2)NC1=O` [SEQ ID NO:34, Ac-[N-Me-Ala^1,Lys^12,Nle^17,Ala^19,Asp^25,Val^26,Thr^28]-VIP cyclo (Lys^21 →Asp^25)] (Ac-[NMeA]SDAVFTDNYTKLRKQ[Nle]AAKKYLNDVLT-NH2; lactam 21-25) were 1.0 μg and 0.71 nM.
The matching figures for `CCCC[C@H](NC(=O)[C@H](CCC(N)=O)NC(=O)[C@H](CCCCN)NC(=O)[C@H](CCCNC(=N)N)NC(=O)[C@H](CC(C)C)NC(=O)[C@H](CCCCN)NC(=O)[C@@H](NC(=O)[C@H](Cc1ccc(O)cc1)NC(=O)[C@H](CC(N)=O)NC(=O)[C@H](CC(=O)O)NC(=O)[C@@H](NC(=O)[C@H](Cc1ccccc1)NC(=O)[C@@H](NC(=O)[C@H](C)NC(=O)[C@H](CC(=O)O)NC(=O)[C@H](CO)NC(=O)[C@H](Cc1c[nH]cn1)NC(C)=O)C(C)C)[C@@H](C)O)[C@@H](C)O)C(=O)N[C@@H](C)C(=O)N[C@@H](C)C(=O)N[C@@H](CCCCN)C(=O)N[C@H]1CCCCNC(=O)C[C@@H](C(=O)N[C@@H](CC(C)C)C(=O)N[C@@H](CCCCN)C(=O)N[C@@H](CCCCN)C(N)=O)NC(=O)[C@H](CC(N)=O)NC(=O)[C@H](CC(C)C)NC(=O)[C@H](Cc2ccc(O)cc2)NC1=O` [SEQ ID NO:38, Ac-[Lys^12,Nle^17,Ala^19,Asp^25,Leu^26,Lys^27,28]-VIP cyclo (Lys^21 →Asp^25)] (Ac-HSDAVFTDNYTKLRKQ[Nle]AAKKYLNDLKK-NH2; lactam 21-25): 0.09 μg and 0.13 nM.
The matching figures for `CCCC[C@H](NC(=O)[C@H](CCC(N)=O)NC(=O)[C@H](CCCCN)NC(=O)[C@H](CCCNC(=N)N)NC(=O)[C@H](CC(C)C)NC(=O)[C@H](CCCCN)NC(=O)[C@@H](NC(=O)[C@H](Cc1ccc(O)cc1)NC(=O)[C@H](CC(N)=O)NC(=O)[C@H](CC(=O)O)NC(=O)[C@@H](NC(=O)[C@H](Cc1ccccc1)NC(=O)[C@@H](NC(=O)[C@H](C)NC(=O)[C@H](CC(=O)O)NC(=O)[C@H](CO)NC(=O)[C@H](C)N(C)C(C)=O)C(C)C)[C@@H](C)O)[C@@H](C)O)C(=O)N[C@@H](C)C(=O)N[C@@H](C)C(=O)N[C@@H](CCCCN)C(=O)N[C@H]1CCCCNC(=O)C[C@@H](C(=O)N[C@@H](CC(C)C)C(=O)N[C@@H](CCCCN)C(=O)N[C@@H](CCCCN)C(N)=O)NC(=O)[C@H](CC(N)=O)NC(=O)[C@H](CC(C)C)NC(=O)[C@H](Cc2ccc(O)cc2)NC1=O` [SEQ ID NO:39, Ac-[N-Me-Ala^1,Lys^12,Nle^17,Ala^19,Asp^25,Leu^26,Lys^27,28]-VIP cyclo (Lys^21 →Asp^25)] (Ac-[NMeA]SDAVFTDNYTKLRKQ[Nle]AAKKYLNDLKK-NH2; lactam 21-25): 0.06 μg and 0.95 nM.
Take `CCCC[C@H](NC(=O)[C@H](CCC(N)=O)NC(=O)[C@H](CCCCN)NC(=O)[C@H](CCCNC(=N)N)NC(=O)[C@H](CC(C)C)NC(=O)[C@H](CCCCN)NC(=O)[C@@H](NC(=O)[C@H](Cc1ccc(O)cc1)NC(=O)[C@H](CC(N)=O)NC(=O)[C@H](CCC(=O)O)NC(=O)[C@@H](NC(=O)[C@H](Cc1ccccc1)NC(=O)[C@@H](NC(=O)[C@H](C)NC(=O)[C@H](CC(=O)O)NC(=O)[C@H](CO)NC(=O)[C@H](Cc1c[nH]cn1)NC(C)=O)C(C)C)[C@@H](C)O)[C@@H](C)O)C(=O)N[C@@H](C)C(=O)N[C@@H](C)C(=O)N[C@@H](CCCCN)C(=O)N[C@H]1CCCCNC(=O)C[C@@H](C(=O)N[C@@H](CC(C)C)C(=O)N[C@@H](CCCCN)C(=O)N[C@@H](CCCCN)C(N)=O)NC(=O)[C@H](CC(N)=O)NC(=O)[C@H](CC(C)C)NC(=O)[C@H](Cc2ccc(O)cc2)NC1=O` [SEQ ID NO:40, Ac-[Glu^8,Lys^12,Nle^17,Ala^19,Asp^25,Leu^26,Lys^27,28]-VIP cyclo (Lys^21 →Asp^25)] (Ac-HSDAVFTENYTKLRKQ[Nle]AAKKYLNDLKK-NH2; lactam 21-25): the “Bronchodilator activity of VIP analogs” value in the assay on guinea pigs is given as 0.022 μg. In assay [1], this compound yielded an EC50 of 0.45 nM.
For the compound `CCCC[C@H](NC(=O)[C@H](CCC(N)=O)NC(=O)[C@H](CCCCN)NC(=O)[C@H](CCCNC(=N)N)NC(=O)[C@H](CC(C)C)NC(=O)[C@H](CCCCN)NC(=O)[C@@H](NC(=O)[C@H](Cc1ccc(O)cc1)NC(=O)[C@H](CC(N)=O)NC(=O)[C@H](CCC(=O)O)NC(=O)[C@@H](NC(=O)[C@H](Cc1ccccc1)NC(=O)[C@@H](NC(=O)[C@H](C)NC(=O)[C@H](CC(=O)O)NC(=O)[C@H](CO)NC(=O)[C@H](Cc1c[nH]cn1)NC(C)=O)C(C)C)[C@@H](C)O)[C@@H](C)O)C(=O)N[C@@H](C)C(=O)N[C@@H](C)C(=O)N[C@@H](CCCCN)C(=O)N[C@H]1CCCCNC(=O)C[C@@H](C(=O)N[C@@H](CC(C)C)C(=O)N[C@@H](CCCCN)C(=O)N[C@@H](CCCCN)C(=O)N[C@@H](C)C(=O)N[C@@H](C)C(=O)N[C@@H](C)C(N)=O)NC(=O)[C@H](CC(N)=O)NC(=O)[C@H](CC(C)C)NC(=O)[C@H](Cc2ccc(O)cc2)NC1=O` [SEQ ID NO:42, Ac-[Glu^8,Lys^12,Nle^17,Ala^19,Asp^25,Leu^26,Lys^27,28,Ala^29-31]-VIP cyclo (Lys^21 →Asp^25)] (Ac-HSDAVFTENYTKLRKQ[Nle]AAKKYLNDLKKAAA-NH2; lactam 21-25), in the assay on guinea pigs, the “Bronchodilator activity of VIP analogs” value was 0.072 μg. In assay [1], this compound returned an EC50 of 0.61 nM.
Taken in the same sequence, the figures for `CCCC[C@H](NC(=O)[C@H](CCC(N)=O)NC(=O)[C@H](CCCCN)NC(=O)[C@H](CCCNC(=N)N)NC(=O)[C@H](CC(C)C)NC(=O)[C@H](CCCCN)NC(=O)[C@@H](NC(=O)[C@H](Cc1ccc(O)cc1)NC(=O)[C@H](CC(N)=O)NC(=O)[C@H](CCC(=O)O)NC(=O)[C@@H](NC(=O)[C@H](Cc1ccccc1)NC(=O)[C@@H](NC(=O)[C@H](C)NC(=O)[C@H](CC(=O)O)NC(=O)[C@H](C)NC(=O)[C@H](Cc1c[nH]cn1)NC(C)=O)C(C)C)[C@@H](C)O)[C@@H](C)O)C(=O)N[C@@H](C)C(=O)N[C@@H](C)C(=O)N[C@@H](CCCCN)C(=O)N[C@H]1CCCCNC(=O)C[C@@H](C(=O)N[C@@H](CC(C)C)C(=O)N[C@@H](CCCCN)C(=O)N[C@@H](CCCCN)C(=O)N[C@@H](C)C(=O)N[C@@H](C)C(=O)N[C@@H](C)C(N)=O)NC(=O)[C@H](CC(N)=O)NC(=O)[C@H](CC(C)C)NC(=O)[C@H](Cc2ccc(O)cc2)NC1=O` [SEQ ID NO:43, Ac-[Ala^2,Glu^8,Lys^12,Nle^17,Ala^19,Asp^25,Leu^26,Lys^27,28,Ala^29-31]-VIP cyclo (Lys^21 →Asp^25)] (Ac-HADAVFTENYTKLRKQ[Nle]AAKKYLNDLKKAAA-NH2; lactam 21-25) were 0.14 μg and 0.55 nM.

The values are drawn from patent US5677419A, “Cyclic vasoactive peptide analogs” (Hoffmann-La Roche Inc., priority 1994, dated 1997).
